Laboratory results reported in patent US20050203119A1, “Dihydropyridine compounds for treating or preventing metabolic disorders” (priority 2003, published 2005).

Key:
[1] = tested on: male db/db mice (C57BLKS/J-m+/+Lepr db/Iar); assay: Seven day baseline glucose (7DBG) study in fed db/db mice (Example 123, FIGS. 6 and 8); assay type: in vivo, mouse; conditions: oral once daily 7 days
Experimental: To determine the effect of a test compound on blood glucose levels in fed diabetic mice, seven day baseline glucose (7DBG) studies were conducted. Six to eight week old, male db/db mice (C57BLKS/J-m+/+Lepr^db/Iar), homozygous for a mutation in the gene encoding the leptin receptor, were purchased from the Institute for Animal Reproduction (Kasumigaura, Japan). Six to eight week old male KK-A^y mice (KK-A^y/Ta Jcl), a polygenic diabetes model, were purchased from Cler Japan (Tokyo, Japan). Animals were housed four to a cage in micro-isolators on a 12 hr/12 hr light/dark cycle, acclimated for at least one week prior to use and fed normal laboratory chow ad libitum. Studies were conducted with animals between nine and fourteen weeks of age. […]
To perform a 7DBG study, the starting glucose levels of db/db or KK-Ay mice in the fed state were determined on day 0, 24 hrs prior to the first drug dose on day 1. Animals were retro-orbitally bled and serum glucose levels measured by the mutarotase-glucose oxidase enzymatic method using a Glucose CII-Test Wako kit (Wako Pure Chemicals Industries, Ltd., Osaka, Japan). […] Serum glucose levels were determined 3 hrs after dosing the first compound on days 3 and 7.
The serum glucose levels on days 3 or 7 as a percent of the serum glucose levels on day 0 for individual animals in each group (6-7 mice/group), calculated using Formula 3: [formula] […]

[2] = tested on: male db/db mice (BKS.Cg-m+/+Lepr db/J); assay: Intraperitoneal glucose tolerance test (IPGTT) in db/db mice (Example 122, FIGS. 3 and 5); assay type: in vivo, mouse; conditions: IPGTT
Experimental: Six to eight week old, male db/db mice (BKS.Cg-m+/+Lepr^db/J; stock number 000642), homozygous for a mutation in the gene encoding the leptin receptor, were purchased from The Jackson Laboratory (Bar Harbor, Me. USA). Animals were singly housed in conventional caging on a 12 hr/12 hr light/dark cycle, acclimated for at least five days prior to use and fed normal laboratory chow ad libitum between experiments. Studies were conducted with animals between seven and fourteen weeks of age. Animals were used for a maximum of five consecutive studies, with a minimum recovery period of five days between studies.
To perform an IPGTT or OGTT, db/db mice were fasted overnight beginning on day 0 at −17.5 to −18.5 hrs relative to the glucose dose on day 1 (all time points below are stated relative to the time of an intraperitoneal or oral glucose dose on day 1). At −4.5 hrs, animals were weighed, blood was collected by tail vein lancing and fasted blood glucose levels determined using a hand-held glucometer (MediSense Precision Xtra or LifeScan OneTouch Ultra). Animals were randomized into dosing groups of 6-7 animals, with each group having a similar average fasted blood glucose level. At −3 hr, animals were dosed with vehicle alone, a test compound or metformin by oral gavage at 5 ml/kg body weight. […] Blood glucose levels were determined as above at −45 min and +45 min, and also +90 min and/or +150 min (see FIG. 3 and the Table in this section). Alternatively, blood glucose levels were determined at −30 min, +30 min, +60 min and +120 min (see FIGS. 4 and 5).
Compound doses were adjusted to be the molar equivalents of 50 mg/kg of Compound 39. The percent change in blood glucose between −45 min and a time point, y, after glucose dosing (e.g., +45 min, +150 min, ect.) was calculated for each animal using formula 1: [formula]
The percent change in blood glucose between −45 min and a time point, y, after glucose dosing was calculated for each animal using formula 1.
Average percent change in glucose intolerance was calculated using Formula 2, as noted in the table below. […]

[3] = tested on: Male ZDF rats (ZDF/GmiCrl-fa/fa); assay: Seven day baseline glucose study in fed ZDF rats (Example 124, FIG. 9); assay type: in vivo, rat; conditions: oral once daily 7 days
Experimental: To determine the effect of a test compound on blood glucose levels in fed and fasted diabetic rats, a 7DBG study was conducted, followed immediately by an 8th day of dosing and an OGTT study on the same animals. Male ZDF rats (ZDF/GmiCrl-fa/fa), homozygous for a mutation in the gene encoding the leptin receptor, were purchased from Charles River Laboratories (Wilmington, Mass., USA). Animals were individually housed in clear polycarbonate cages (contact bedding) on a 12 hr/12 hr light/dark cycle, acclimated for at least one week prior to use and fed normal laboratory chow (Purina No. 5008) ad libitum. Studies were conducted with animals starting between eleven and twelve weeks of age. Animals were used for a single study before being replaced.
To perform a 7DBG plus OGTT study, animals were bled by tail vein lancing on day 0, 24 hrs prior to the first drug dose on day 1, and blood glucose levels were measured by a hand-held glucometer. Animals were randomized into dosing groups of 6 animals, with each group having a similar starting average glucose level. […] Blood glucose levels were determined daily using a hand-held glucometer 3 hrs after the first dose on days 1 through 7.
The serum glucose levels on days 3 or 7 as a percent of the serum glucose levels on day 0 for individual animals in each group (6 rats/group), were calculated using Formula 3. […]

[4] = tested on: Male ZDF rats (ZDF/GmiCrl-fa/fa); assay: Oral glucose tolerance test in fasted ZDF rats after 8 days of dosing (Example 124, FIG. 10); assay type: in vivo, rat; conditions: OGTT
Experimental: Male ZDF rats (ZDF/GmiCrl-fa/fa), homozygous for a mutation in the gene encoding the leptin receptor, were purchased from Charles River Laboratories (Wilmington, Mass., USA). Animals were individually housed in clear polycarbonate cages (contact bedding) on a 12 hr/12 hr light/dark cycle, acclimated for at least one week prior to use and fed normal laboratory chow (Purina No. 5008) ad libitum. Studies were conducted with animals starting between eleven and twelve weeks of age. Animals were used for a single study before being replaced. […] As noted above, animals were dosed on day 8 on the same schedule as was used for days 1 through 7 of the 7DBG study. […] Serum glucose levels were determined using a laboratory analyzer. […] This may be due to the dose of metformin (250 mg/kg) that was used, which may be too high to observe any synergy between the two compounds. […] The indicated time points are relative to the oral glucose dose.

## CCOC(=O)C1=C(COCCN)NC2=C(C(=O)CC(C)(C)C2)C1c1cccnc1 (stereo not shown) [Compound 39, 2-(2-Amino-ethoxymethyl)-7,7-dimethyl-5-oxo-4-pyridin-3-yl-1,4,5,6,7,8-hexahydro-quinoline-3-carboxylic acid ethyl ester]
[1]
  glucose lowering activities of rosiglitazone and metformin in combination with Compound 39 (FIG. 8): enhanced
[2]; Compound 39 orally dosed alone
  glucose intolerance relative to vehicle-treated animals (FIG. 5): decreased
[2]; Compound 39 orally in combination with metformin
  effect of metformin on glucose intolerance in combination with Compound 39 (FIG. 5): enhanced
[3]
  glucose lowering activities of metformin in combination with Compound 39 (FIG. 9): enhanced
[3]; Compound 39 alone
  serum glucose (FIG. 9): decreased serum glucose
[4]; after daily oral dosing for 8 days
  glucose intolerance relative to vehicle-treated animals (FIG. 10): decreased
[4]; metformin 250 mg/kg
  effect of metformin on glucose tolerance in combination with Compound 39 (FIG. 10): did not appear to enhance
